Assay results from patent US10758534B2 (Vertex Pharmaceuticals Incorporated, priority 2014, dated 2020).

Target: T1, F508del (Homo sapiens, UniProt P13569, DEL508-508)
T1 construct: expressed in transfected cells
Test: Protocol 2: FRET membrane potential optical assay (VIPR), identification of correction compounds
Assay type: cell-based
Conditions: F508del CFTR modulator activity; compounds of Table 1; read-out: EC30
Outline: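 Correction of the F508del trafficking defect is scored as forskolin (10 μM)/genistein (20 μM)-stimulated Cl^− efflux in NIH3T3 mouse fibroblasts after a 16 hr, 37° C. compound exposure. Depolarization was followed optically using voltage-sensing FRET dyes.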

T1 sequence (P13569 with tags, fused parts or gaps DEL508-508): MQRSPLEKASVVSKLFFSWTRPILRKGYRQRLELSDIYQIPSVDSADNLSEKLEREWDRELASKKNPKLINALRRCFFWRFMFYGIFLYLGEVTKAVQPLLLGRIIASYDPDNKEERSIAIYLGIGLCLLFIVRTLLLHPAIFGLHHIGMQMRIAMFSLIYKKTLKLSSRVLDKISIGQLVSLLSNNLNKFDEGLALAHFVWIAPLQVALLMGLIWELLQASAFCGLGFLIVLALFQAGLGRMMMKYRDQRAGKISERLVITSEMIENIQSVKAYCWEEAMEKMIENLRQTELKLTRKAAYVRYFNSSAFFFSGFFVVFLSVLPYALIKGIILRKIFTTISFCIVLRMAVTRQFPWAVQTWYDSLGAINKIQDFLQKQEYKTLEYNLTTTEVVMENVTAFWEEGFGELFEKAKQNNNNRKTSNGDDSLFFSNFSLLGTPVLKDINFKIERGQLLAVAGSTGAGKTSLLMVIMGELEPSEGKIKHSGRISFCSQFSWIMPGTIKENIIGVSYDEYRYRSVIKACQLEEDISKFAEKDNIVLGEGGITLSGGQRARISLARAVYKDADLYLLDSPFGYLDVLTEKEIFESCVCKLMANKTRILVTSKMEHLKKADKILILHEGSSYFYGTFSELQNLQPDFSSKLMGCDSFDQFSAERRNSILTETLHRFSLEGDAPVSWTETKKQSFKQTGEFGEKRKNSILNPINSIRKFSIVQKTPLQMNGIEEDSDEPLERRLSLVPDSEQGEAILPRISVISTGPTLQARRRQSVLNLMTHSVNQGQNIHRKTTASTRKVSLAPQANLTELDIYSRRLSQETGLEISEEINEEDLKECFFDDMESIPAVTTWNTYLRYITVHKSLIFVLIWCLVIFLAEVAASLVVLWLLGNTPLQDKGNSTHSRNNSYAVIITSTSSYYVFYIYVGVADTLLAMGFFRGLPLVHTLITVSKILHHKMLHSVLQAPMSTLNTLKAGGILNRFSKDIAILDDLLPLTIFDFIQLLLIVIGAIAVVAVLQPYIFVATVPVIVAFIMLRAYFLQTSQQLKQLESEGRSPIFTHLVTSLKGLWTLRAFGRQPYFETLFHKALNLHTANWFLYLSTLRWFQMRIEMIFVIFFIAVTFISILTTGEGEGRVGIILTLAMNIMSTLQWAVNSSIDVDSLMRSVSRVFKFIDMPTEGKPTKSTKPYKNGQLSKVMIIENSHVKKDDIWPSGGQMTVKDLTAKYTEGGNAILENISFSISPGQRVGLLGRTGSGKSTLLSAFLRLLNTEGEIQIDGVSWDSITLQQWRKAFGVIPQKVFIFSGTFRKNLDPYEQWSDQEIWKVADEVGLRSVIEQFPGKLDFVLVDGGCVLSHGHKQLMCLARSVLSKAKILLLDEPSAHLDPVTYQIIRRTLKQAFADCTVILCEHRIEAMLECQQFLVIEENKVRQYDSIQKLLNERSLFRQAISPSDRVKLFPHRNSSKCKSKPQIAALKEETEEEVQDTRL

Work on `Cc1ccc(F)c(-c2ccc(C(=O)NS(=O)(=O)N3CC[C@H](N)C3)c(N3C[C@@H](C)CC3(C)C)n2)c1` [Compound 2016, N-[(3S)-3-aminopyrrolidin-1-yl]sulfonyl-6-(2-fluoro-5-methyl-phenyl)-2-[(4S)-2,2,4-trimethylpyrrolidin-1-yl]pyridine-3-carboxamide] yielded an EC30 of 3000 to 10000 nM.
In the case of `Cc1ccc(-c2ccc(C(=O)NS(=O)(=O)c3cccnc3N)c(N3C[C@@H](C)CC3(C)C)n2)cc1C` [Compound 2017, N-[(2-amino-3-pyridyl)sulfonyl]-6-(3,4-dimethylphenyl)-2-[(4S)-2,2,4-trimethylpyrrolidin-1-yl]pyridine-3-carboxamide], the EC30 is reported as < 3000 nM.
For `CCOc1cc(F)cc(-c2ccc(C(=O)NS(=O)(=O)c3cccnc3N)c(N3C[C@@H](C)CC3(C)C)n2)c1` [Compound 2018, N-[(2-amino-3-pyridyl)sulfonyl]-6-(3-ethoxy-5-fluoro-phenyl)-2-[(4S)-2,2,4-trimethylpyrrolidin-1-yl]pyridine-3-carboxamide], the EC30 was < 3000 nM.
For `CC1CN(c2ncccc2C(=O)NS(=O)(=O)c2cccc(OCC(C)C3CCCCC3)n2)C(C)(C)C1` (stereo not shown) [Compound 2019, N—[[6-(2-cyclohexylpropoxy)-2-pyridyl]sulfonyl]-2-(2,2,4-trimethylpyrrolidin-1-yl)pyridine-3-carboxamide], the EC30 was < 3000 nM.
`CC(C)[C@@H](C)Oc1nc(N2C[C@@H](C)CC2(C)C)c(C(=O)NS(=O)(=O)c2cccc(N)n2)cc1F` [Compound 2020, N-[(6-amino-2-pyridyl)sulfonyl]-6-[(1R)-1,2-dimethylpropoxy]-5-fluoro-2-[(4S)-2,2,4-trimethylpyrrolidin-1-yl]pyridine-3-carboxamide] was tested, and the EC30 was < 3000 nM.
Compound `C[C@@H]1CN(c2nc(-c3cnc(N(C)C)nc3)ccc2C(=O)NS(=O)(=O)c2cccnc2N)C(C)(C)C1` [Compound 2021, N-[(2-amino-3-pyridyl)sulfonyl]-6-[2-(dimethylamino)pyrimidin-5-yl]-2-[(4S)-2,2,4-trimethylpyrrolidin-1-yl]pyridine-3-carboxamide] has an EC30 of 3000 to 10000 nM.
`CC1CN(c2ncccc2C(=O)NS(=O)(=O)c2cccc(Nc3ccc(-c4ccccc4)cc3)n2)C(C)(C)C1` (stereo not shown) [Compound 2023, N—[[6-(4-phenylanilino)-2-pyridyl]sulfonyl]-2-(2,2,4-trimethylpyrrolidin-1-yl)pyridine-3-carboxamide] was tested, and the EC30 was < 3000 nM.
Compound `COC[C@@H]1CCCN1c1cccc(S(=O)(=O)NC(=O)c2cccnc2N2CC(C)CC2(C)C)n1` (stereo partly drawn) [Compound 2024, N—[[6-[(2S)-2-(methoxymethyl)pyrrolidin-1-yl]-2-pyridyl]sulfonyl]-2-(2,2,4-trimethylpyrrolidin-1-yl)pyridine-3-carboxamide] has an EC30 of 3000 to 10000 nM.
In the case of `CC1CN(c2ncccc2C(=O)NS(=O)(=O)c2cccc(OCCC(C)(C)C)n2)C(C)(C)C1` (stereo not shown) [Compound 2025, N—[[6-(3,3-dimethylbutoxy)-2-pyridyl]sulfonyl]-2-(2,2,4-trimethylpyrrolidin-1-yl)pyridine-3-carboxamide], the EC30 is reported as < 3000 nM.
For `CC1CN(c2ncccc2C(=O)NS(=O)(=O)c2cccc(NCC3CCCC3)n2)C(C)(C)C1` (stereo not shown) [Compound 2026, N—[[6-(cyclopentylmethylamino)-2-pyridyl]sulfonyl]-2-(2,2,4-trimethylpyrrolidin-1-yl)pyridine-3-carboxamide], the EC30 was < 3000 nM.
With `CC(C)OC(=O)N1CC=C(c2cc(C(=O)NS(=O)(=O)c3cccc(N)n3)c(N3C[C@@H](C)CC3(C)C)nc2C(C)(C)C)CC1` [Compound 2027, isopropyl 4-[5-[(6-amino-2-pyridyl)sulfonylcarbamoyl]-2-tert-butyl-6-[(4S)-2,2,4-trimethylpyrrolidin-1-yl]-3-pyridyl]-3,6-dihydro-2H-pyridine-1-carboxylate] the EC30 was < 3000 nM.
In the case of `C[C@@H]1CN(c2nc(-c3ccc(Cl)cc3)ccc2C(=O)NS(=O)(=O)c2ccc[nH]c2=O)C(C)(C)C1` [Compound 2028, 6-(4-chlorophenyl)-N-[(2-oxo-1H-pyridin-3-yl)sulfonyl]-2-[(4S)-2,2,4-trimethylpyrrolidin-1-yl]pyridine-3-carboxamide], the EC30 is reported as < 3000 nM.
In the case of `C[C@@H]1CN(c2nc(-c3cccc(OC(F)(F)F)c3)ccc2C(=O)NS(=O)(=O)N2CC[C@H](N)C2)C(C)(C)C1` [Compound 2029, N-[(3S)-3-aminopyrrolidin-1-yl]sulfonyl-6-[3-(trifluoromethoxy)phenyl]-2-[(4S)-2,2,4-trimethylpyrrolidin-1-yl]pyridine-3-carboxamide], the EC30 is reported as < 3000 nM.
In the case of `CC1CCCN(c2cccc(S(=O)(=O)NC(=O)c3cccnc3N3CC(C)CC3(C)C)n2)C1` (stereo not shown) [Compound 2030, N—[[6-(3-methyl-1-piperidyl)-2-pyridyl]sulfonyl]-2-(2,2,4-trimethylpyrrolidin-1-yl)pyridine-3-carboxamide], the EC30 is reported as < 3000 nM.
`COc1cccc(-c2cnc(N3CC(C)CC3(C)C)c(C(=O)NS(=O)(=O)c3cccc(N)n3)c2)c1` (stereo not shown) [Compound 2031, N-[(6-amino-2-pyridyl)sulfonyl]-5-(3-methoxyphenyl)-2-(2,2,4-trimethylpyrrolidin-1-yl)pyridine-3-carboxamide] was tested, and the EC30 was < 3000 nM.
For `CC1CN(c2ncccc2C(=O)NS(=O)(=O)c2cccc(OCC3CCOCC3)n2)C(C)(C)C1` (stereo not shown) [Compound 2032, N—[[6-(tetrahydropyran-4-ylmethoxy)-2-pyridyl]sulfonyl]-2-(2,2,4-trimethylpyrrolidin-1-yl)pyridine-3-carboxamide], the EC30 was 3000 to 10000 nM.
In the case of `COc1cccc(F)c1-c1ccc(C(=O)NS(=O)(=O)c2cccnc2N)c(N2C[C@@H](C)CC2(C)C)n1` [Compound 2033, N-[(2-amino-3-pyridyl)sulfonyl]-6-(2-fluoro-6-methoxy-phenyl)-2-[(4S)-2,2,4-trimethylpyrrolidin-1-yl]pyridine-3-carboxamide], the EC30 is reported as < 3000 nM.
`Cc1ccc(O)c(-c2ccc(C(=O)NS(=O)(=O)c3cccc(N)n3)c(N3C[C@@H](C)CC3(C)C)n2)c1` [Compound 2034, N-[(6-amino-2-pyridyl)sulfonyl]-6-(2-hydroxy-5-methyl-phenyl)-2-[(4S)-2,2,4-trimethylpyrrolidin-1-yl]pyridine-3-carboxamide] was tested, and the EC30 was < 3000 nM.
For `C[C@@H]1CN(c2nc(-c3cc(F)c(F)cc3F)ccc2C(=O)NS(=O)(=O)c2cccnc2N)C(C)(C)C1` [Compound 2035, N-[(2-amino-3-pyridyl)sulfonyl]-6-(2,4,5-trifluorophenyl)-2-[(4S)-2,2,4-trimethylpyrrolidin-1-yl]pyridine-3-carboxamide], the EC30 was < 3000 nM.
In the case of `CC(C)Cc1ccn(-c2ccc(C(=O)NS(=O)(=O)c3cccnc3N)c(N3C[C@@H](C)CC3(C)C)n2)n1` [Compound 2036, N-[(2-amino-3-pyridyl)sulfonyl]-6-(3-isobutylpyrazol-1-yl)-2-[(4S)-2,2,4-trimethylpyrrolidin-1-yl]pyridine-3-carboxamide], the EC30 is reported as < 3000 nM.
For `Cc1ccc(-c2ccc(C(=O)NS(=O)(=O)c3ccc[nH]c3=O)c(N3C[C@@H](C)CC3(C)C)n2)c(C)c1` [Compound 2037, 6-(2,4-dimethylphenyl)-N-[(2-oxo-1H-pyridin-3-yl)sulfonyl]-2-[(4S)-2,2,4-trimethylpyrrolidin-1-yl]pyridine-3-carboxamide], the EC30 was < 3000 nM.
With `CC1CN(c2ncccc2C(=O)NS(=O)(=O)c2cccc(OC3CCCC(C)(C)C3)n2)C(C)(C)C1` (stereo not shown) [Compound 2038, N—[[6-(3,3-dimethylcyclohexoxy)-2-pyridyl]sulfonyl]-2-(2,2,4-trimethylpyrrolidin-1-yl)pyridine-3-carboxamide] the EC30 was < 3000 nM.
